Reference: patent publication EP0801066A1, “Heterocyclic substituted benzothiophenes and pharmaceutical compositions” (ELI LILLY AND COMPANY, priority 1996, dated 1997)
Marks after values point to notes of the source that are not given here.

Legend:
[1] = system: Uterine Eosinophil Peroxidase (EPO); assay: Uterine Eosinophil Peroxidase (EPO) Assay in ovariectomized rats; assay type: in vivo, Sprague Dawley rats; details: for Serum Eosinophil (Vmax): oral, daily for 4 days, eosinophil peroxidase Vmax
Excerpt: (§1) Seventy-five day old female Sprague Dawley rats (weight range of 200 to 225g) are obtained from Charles River Laboratories (Portage, MI). The animals are either bilaterally ovariectomized (OVX) or exposed to a Sham surgical procedure at Charles River Laboratories, and then shipped after one week. Upon arrival, they are housed in metal hanging cages in groups of 3 or 4 per cage and have ad libitum access to food (calcium content approximately 0.5%) and water for one week. Room temperature is maintained at 22.2° ± 1.7° C with a minimum relative humidity of 40%. The photoperiod in the room is 12 hours light and 12 hours dark.
(§2) Dosing Regimen Tissue Collection. After a one week acclimation period (therefore, two weeks post-OVX) daily dosing with test compound is initiated. 17α-ethynyl estradiol or the test compound is given orally, unless otherwise stated, as a suspension in 1% carboxymethylcellulose or dissolved in 20% cyclodextrin. Animals were dosed daily for 4 days. Following the dosing regimen, animals are weighed and anesthetized with a ketamine: Xylazine (2:1, V:V) mixture and a blood sample is collected by cardiac puncture. The animals are then sacrificed by asphyxiation with CO2, the uterus is removed through a midline incision, and a wet uterine weight is determined.
Uterine Eosinophil Peroxidase (EPO) Assay. Uteri are kept at 4° C until time of enzymatic analysis. The uteri are then homogenized in 50 volumes of 50 mM Tris buffer (pH - 8.0) containing 0.005% Triton X-100. Upon addition of 0.01% hydrogen peroxide and 10 mM O-phenylenediamine (final concentrations) in Tris buffer, increase in absorbance is monitored for one minute at 450 nm. The presence of eosonophils in the uterus is an indication of estrogenic activity of a compound. The maximal velocity of a 15 second interval is determined over the initial, linear portion of the reaction curve.

ovariectomized rats [2] = assay: Uterine weight in ovariectomized rat post-menopausal model, 4-day oral dosing; assay type: in vivo, Sprague Dawley rats; details: for Increase in Uterine Weight (%): daily for 4 days, versus ovariectomized controls
Description: In the examples illustrating the methods, a post-menopausal model was used in which effects of different treatments upon circulating lipids were determined.
as §1, §2

Serum cholesterol = Serum cholesterol analysis in ovariectomized rats (hyperlipidemia); assay type: in vivo, Sprague Dawley rats; details: oral; for Decrease in Cholesterol (%): daily for 4 days, serum cholesterol versus ovariectomized controls
Excerpt: as §1, §2
Cholesterol Analysis. Blood samples are allowed to clot at room temperature for 2 hours, and serum is obtained following centrifugation for 10 minutes at 3000 rpm. Serum cholesterol is determined using a Boehringer Mannheim Diagnostics high performance cholesterol assay. Briefly the cholesterol is oxidized to cholest-4-en-3-one and hydrogen peroxide. The hydrogen peroxide is then reacted with phenol and 4-aminophenazone in the presence of peroxidase to produce a p-quinone imine dye, which is read spectrophotemetrically at 500 nm. Cholesterol concentration is then calculated against a standard curve. The entire assay is automated using a Biomek Automated Workstation.

[3] = system: MCF-7 breast adenocarcinoma cells; assay: MCF-7 Proliferation Assay (tritiated thymidine incorporation); assay type: cell-based; details: Homo sapiens, MCF7; 48 hours with drug, 4 hours tritiated thymidine pulse; read-out: IC50, inhibition of the growth of MCF-7 cells
Description: MCF-7 breast adenocarcinoma cells (ATCC HTB 22) are maintained in MEM (minimal essential medium, phenol red-free, Sigma, St. Louis, MO) supplemented with 10% fetal bovine serum (FBS) (V/V), L-glutamine (2 mM), sodium pyruvate (1 mM), HEPES {(N-[2-hydroxyethyl]piperazine-N'-[2-ethanesulfonic acid]10 mM}, non-essential amino acids and bovine insulin (1 ug/mL) (maintenance medium). Ten days prior to assay, MCF-7 cells are switched to maintenance medium supplemented with 10% dextran coated charcoal stripped fetal bovine serum (DCC-FBS) assay medium) in place of 10% FBS to deplete internal stores of steroids. MCF-7 cells are removed from maintenance flasks using cell dissociation medium (Ca^++/Mg^++ free HBSS (phenol red-free) supplemented with 10 mM HEPES and 2 mM EDTA). Cells are washed twice with assay medium and adjusted to 80,000 cells/mL. Approximately 100 µL (8,000 cells) are added to flat-bottom microculture wells (Costar 3596) and incubated at 37° C in a 5% CO2 humidified incubator for 48 hours to allow for cell adherence and equilibration after transfer. Serial dilutions of drugs or DMSO as a diluent control are prepared in assay medium and 50 µL transferred to triplicate microcultures followed by 50 µL assay medium for a final volume of 200 µL. […] Samples are counted by liquid scintillation using a Wallac BetaPlace β counter. […]

ovariectomized rats [4] = assay: Osteoporosis Test Procedure: femur density in ovariectomized rats, 35-day dosing; assay type: in vivo, Sprague Dawley rats; details: oral, in 20% hydroxypropyl β-cyclodextrin, daily for 35 days
Excerpt: Seventy-five day old female Sprague Dawley rats (weight range of 200 to 225g) are obtained from Charles River Laboratories (Portage, MI). The animals are either bilaterally ovariectomized (OVX) or exposed to a Sham surgical procedure at Charles River Laboratories, and then shipped after one week. Upon arrival, they are housed in metal hanging cages in groups of 3 or 4 per cage and have ad libitum access to food (calcium content approximately 0.5%) and water for one week. Room temperature is maintained at 22.2° ± 1.7° C with a minimum relative humidity of 40%. The photoperiod in the room is 12 hours light and 12 hours dark. Following the General Preparation Procedure, infra, the rats are treated daily for 35 days (6 rats per treatment group) and sacrificed by carbon dioxide asphyxiation on the 36th day. The 35 day time period is sufficient to allow maximal reduction in bone density, measured as described herein. At the time of sacrifice, the uteri are removed, dissected free of extraneous tissue, and the fluid contents are expelled before determination of wet weight in order to confirm estrogen deficiency associated with complete ovariectomy. […] The right femurs are excised and digitilized x-rays generated and analyzed by an image analysis program (NIH image) at the distal metaphysis. The proximal aspect of the tibiae from these animals are also scanned by quantitative computed tomography. […]

[5] = ovariectomized rats, EE2 at 0.1 mg/kg/day

O=C(c1ccc(OCCN2CCCCC2)nc1)c1c(-c2ccc(O)cc2)sc2cc(O)ccc12 [Prep. 1, [2-(4-Hydroxyphenyl)-6-hydroxybenzo[b]thien-3-yl][2-[2-(1-piperidinyl)ethoxy]pyridin-5-yl]methanone]
Serum Eosinophil (Vmax) ([1]; dose 0.1 mg/kg): 48.0*
Serum Eosinophil (Vmax) ([1]; dose 1.0 mg/kg): 70.5*
Serum Eosinophil (Vmax) ([1]; dose 10.0 mg/kg): 55.8*
Increase in Uterine Weight (%) (ovariectomized rats [2]; dose 0.1 mg/kg): 80.3* %
Increase in Uterine Weight (%) (ovariectomized rats [2]; dose 1.0 mg/kg): 91.4* %
Increase in Uterine Weight (%) (ovariectomized rats [2]; dose 10.0 mg/kg): 80.8* %
Decrease in Cholesterol (%) (Serum cholesterol; dose 0.1 mg/kg): 57.1* %
Decrease in Cholesterol (%) (Serum cholesterol; dose 1.0 mg/kg): 66.1* %
Decrease in Cholesterol (%) (Serum cholesterol; dose 10.0 mg/kg): 61.7* %
IC50 [3]: 10 nM

C#C[C@]1(O)CC[C@H]2[C@@H]3CCc4cc(O)ccc4[C@H]3CC[C@@]21C [EE2, 17-a-ethynyl estradiol, reference compound]
Serum Eosinophil (Vmax) ([1]; dose 0.1 mg/kg): 211.1*
eosinophil infiltration into the uterus (in words) ([1]; stromal layer of ovariectomized rat uteri): substantial and expected increase in eosinophil infiltration
Increase in Uterine Weight (%) (ovariectomized rats [2]; dose 0.1 mg/kg): 182.1* %
uterine weight compared to the ovariectomized animals (in words) (ovariectomized rats [2]; [5]): substantially greater than the uterine weight of the ovariectomized animals
Decrease in Cholesterol (%) (Serum cholesterol; dose 0.1 mg/kg): 87.4* %
serum cholesterol compared to the ovariectomized animals (in words) (Serum cholesterol; [5]): caused a decrease in serum cholesterol
bone loss / reduction in femur density after ovariectomy (in words) (ovariectomized rats [4]): prevented this loss
